# Data taken from patent publication US20210386367A1, “DEVICES AND SYSTEMS FOR GASTROINTESTINAL MICROBIOME DETECTION AND MANIPULATION” (Progenity, Inc., priority 2018, published 2021).
# Like-named read-outs stand apart in the source and are kept apart here.
# Legend:
# Format in all cases: cell-based
# [1] = system: Streptococcus pyogenes clinical isolates; assay: MIC distribution against clinical isolates; conditions: 19 S. pyogenes isolates
# Excerpt: (§1) As used herein, “minimum inhibitory concentration” or “MIC” refers to the lowest concentration of an antimicrobial agent, for example, an antimicrobial agent as described herein, required to inhibit the growth of an organism. […] “MIC90” represents the MIC value at which ≥90% of the strains within a test population are inhibited; the 90th percentile.
# (§2) Many susceptibility testing methods are known in the art and can be used as described herein (see, e.g., Jorgensen and Ferraro (2009) Clinical Infectious Diseases 49:1749-1755; and Maurer et al. (2017) Infectious Disease Reports 9:6839; the entire contents of each of the foregoing are incorporated herein by reference). For example, antimicrobial susceptibility can be determined using conventional culture based methods such as the broth or agar dilution test. In these dilution tests, the bacterial isolate of interest is inoculated onto different media that include serial dilutions of an antimicrobial agent, and incubated under appropriate conditions (e.g., overnight at 37° C.) to allow for growth to occur. Following the incubation period, the media is examined to determine bacterial growth. The lowest concentration of antibiotic that prevents growth represents the minimal inhibitory concentration (MIC). Broth dilution tests can be miniaturized and mechanized allowing for reproducibility and high throughput.
# [2] = system: Viridans group Streptococci clinical isolates; assay: MIC distribution against clinical isolates; conditions: 15 Viridans group Streptococci isolates
# Excerpt: as §1, §2
# [3] = system: Viridans group Streptococcus; assay: Broth microdilution MIC, 15 clinical isolates
# Procedure: (§3) Minimal inhibitory concentration (MIC) values were determined by broth microdilution or agar dilution in accordance with guidelines from the Clinical and Laboratory Standards Institute (CLSI; (1) “Methods for Dilution Antimicrobial Susceptibility Tests for Bacteria That Grow Aerobically; Approved Standard; 11th ed.” CLSI standard M07-A11, 2018; (2) “Performance Standards for Antimicrobial Susceptibility Testing; Twenty-Eighth Informational Supplement,” CLSI document M100-S28, 2018; and (3) “Methods for Antimicrobial Susceptibility Testing of Anaerobic Bacteria; Approved Standard—Eighth Edition,” CLSI document M11-A8, 2012).
# (§4) Tested aerobically by broth microdilution: • Escherichia coli, n=50 • Klebsiella spp., n=50 • Pseudomonas aeruginosa, n=50 • Streptococcus spp., n=50 • Staphylococcus aureus, n=50 • Enterococcus faecalis, n=50 • Enterobacter aerogenes, n=50 • Proteus mirabilis, n=50
# (§5) Broth microdilution testing of aerobic bacteria was conducted in cation-adjusted Mueller Hinton broth (MHBII). For testing streptococci, lysed horse blood (LHB) was added to MHBII broth at a final concentration of 3%. Where LHB was used, it was added after filtering.
# (§6) Broth microdilution susceptibility testing in 96-well microplates was conducted in accordance with CLSI methods (1) and (2). Automated liquid handlers were used to conduct serial dilutions and liquid transfers, including the Multidrop 384 (Labsystems, Helsinki, Finland), Biomek 2000, and the Biomek FX (Beckman Coulter, Fullerton, Calif.). All wells in columns 2 through 12 of a standard 96-well microdilution plate (Costar 3795) were filled with 150 μL of the appropriate diluent. Then, 300 μL of the test agents were added to the wells of column 1 of the plates at 100× the highest final concentration to be tested. Serial two-fold dilutions were made across the rows through column 11 using the Biomek 2000. The wells of column 12 contained no drug and served as the growth control wells. This plate served as the “mother plate” from which MIC assay plates or “daughter plates” were made.
# (§7) The daughter plates were loaded with 190 μL per well of the appropriate medium using the Multidrop 384. The daughter plates were created using the Biomek FX which transferred 2 μL of drug solution from each well of a mother plate to each corresponding well of the daughter plate in a single step. A standardized inoculum of each test organism was prepared per CLSI methods (1) to equal a 0.5 McFarland standard, followed by a dilution of 1:20 for aerobes and 1:10 for anaerobes. The plates were then inoculated with 10 μL of the diluted inoculum using the Biomek 2000 from low to high drug concentration, resulting in a final concentration of approximately 5×10^5 CFU/mL per well. An un-inoculated plate was incubated in parallel for each medium for the purpose of assessing solubility of the drug in the test media.
# (§8) Inoculated plates were stacked 3 or 4 high, covered with a sterile lid on the top plate, placed into boxes with CO2 planchets (streptococci) or plastic bags (all other isolates). Plates were incubated at 35° C. for 16-24 hr in ambient air for aerobes or for 42-48 hr in the anaerobic environment of the Bactron II anaerobe chamber (Sheldon Manufacturing Co.; Cornelius, Oreg.). Following incubation, the microplates were removed from the incubator and viewed from the bottom using a plate viewer. The MIC values were read and recorded as the lowest concentration of drug that inhibited visible growth of the organism as per CLSI methods (1) and (2).
# [4] = system: Staphylococcus aureus; assay: Broth microdilution MIC, 50 clinical isolates (28 MRSA)
# Procedure: as §3, §4, §5, §6, §7, §8
# [5] = system: Streptococcus agalactiae; assay: Broth microdilution MIC, 20 clinical isolates; conditions: Streptococcus agalactiae
# Procedure: as §3, §4, §5, §6, §7, §8
# [6] = system: Streptococcus spp. clinical isolates; assay: MIC distribution against clinical isolates; conditions: 54 Streptococcus spp. isolates
# Excerpt: (n=19 S. pyogenes, n=20 S. agalactiae and n=20 Viridans group Streptococcus) clinical isolates (μg/mL).
# as §1, §2
# [7] = system: Streptococcus spp.; assay: Broth microdilution MIC, 54 clinical isolates
# Procedure: as §3, §4, §5, §6, §7, §8
# [8] = system: Enterococcus faecalis; assay: Broth microdilution MIC, 50 clinical isolates
# Procedure: as §3, §4, §5, §6, §7, §8
# [9] = 15 Viridans group Streptococci clinical isolates
# [10] = 54 Streptococcus spp. clinical isolates
compound,measurement,setting,value
CO/N=C(\C(=O)N[C@@H]1C(=O)N2C(C(=O)O)=C(CSc3nc(=O)c(=O)[nH]n3C)CS[C@H]12)c1csc(N)n1 [ceftriaxone],Cumulative percentage of isolates inhibited at MIC,[1]; MIC 0.015 μg/mL,84.2%
same,Number of test isolates at MIC,[1]; MIC 0.015 μg/mL,16
same,Cumulative percentage of isolates inhibited at MIC,[1]; MIC 0.03 μg/mL,94.7%
same,Number of test isolates at MIC,[1]; MIC 0.03 μg/mL,2
same,Cumulative percentage of isolates inhibited at MIC,[1]; MIC 0.06 μg/mL,100.0%
same,Number of test isolates at MIC,[1]; MIC 0.06 μg/mL,1
same,Cumulative percentage of isolates inhibited at MIC,[2]; MIC 0.008 μg/mL,6.7%
same,Number of test isolates at MIC,[2]; MIC 0.008 μg/mL,1
same,Cumulative percentage of isolates inhibited at MIC,[2]; MIC 0.015 μg/mL,20.0%
same,Number of test isolates at MIC,[2]; MIC 0.015 μg/mL,2
same,Cumulative percentage of isolates inhibited at MIC,[2]; MIC 0.03 μg/mL,33.3%
same,Number of test isolates at MIC,[2]; MIC 0.03 μg/mL,2
same,Cumulative percentage of isolates inhibited at MIC,[2]; MIC 0.06 μg/mL,66.7%
same,Number of test isolates at MIC,[2]; MIC 0.06 μg/mL,5
same,Cumulative percentage of isolates inhibited at MIC,[2]; MIC 0.5 μg/mL,93.3%
same,Number of test isolates at MIC,[2]; MIC 0.5 μg/mL,1
same,Cumulative percentage of isolates inhibited at MIC,[2]; MIC 1 μg/mL,100.0%
same,Number of test isolates at MIC,[2]; MIC 1 μg/mL,1
same,MIC50,[3]; [9],0.06 µg/mL
same,MIC90,[3]; [9],0.5 µg/mL
same,MIC range,[3]; [9],0.008 to 1 µg/mL
same,% S,"[3]; 15 Viridans group Streptococci clinical isolates, MXF by FDA breakpoints",100%
same,MIC50,"[3]; Streptococcus, read-out: MIC50",0.06 µg/mL
same,MIC90,"[3]; Streptococcus, read-out: MIC90",0.5 µg/mL
same,Mode,"[3]; modal MIC, 15 Viridans group Streptococci clinical isolates",0.06 µg/mL
same,Mode,[4],>64 µg/mL
same,MIC50,"[4]; Staphylococcus aureus, read-out: MIC50",32 µg/mL
same,MIC90,"[4]; Staphylococcus aureus, read-out: MIC90",> 64 µg/mL
same,MIC90,[4]; listed as CTR,>64 µg/mL
same,MIC50,[5]; read-out: MIC50,0.06 µg/mL
same,MIC90,[5]; read-out: MIC90,0.06 µg/mL
same,Cumulative percentage of isolates inhibited at MIC,[6]; MIC 0.008 μg/mL,1.9%
same,Number of test isolates at MIC,[6]; MIC 0.008 μg/mL,1
same,Cumulative percentage of isolates inhibited at MIC,[6]; MIC 0.015 μg/mL,35.2%
same,Number of test isolates at MIC,[6]; MIC 0.015 μg/mL,18
same,Cumulative percentage of isolates inhibited at MIC,[6]; MIC 0.03 μg/mL,51.9%
same,Number of test isolates at MIC,[6]; MIC 0.03 μg/mL,9
same,Cumulative percentage of isolates inhibited at MIC,[6]; MIC 0.06 μg/mL,87.0%
same,Number of test isolates at MIC,[6]; MIC 0.06 μg/mL,19
same,Cumulative percentage of isolates inhibited at MIC,[6]; MIC 0.5 μg/mL,98.1%
same,Number of test isolates at MIC,[6]; MIC 0.5 μg/mL,1
same,Cumulative percentage of isolates inhibited at MIC,[6]; MIC 1 μg/mL,100.0%
same,Number of test isolates at MIC,[6]; MIC 1 μg/mL,1
same,isolates susceptible,[7],100%
same,MIC50,[7]; [10],0.03 µg/mL
same,MIC90,[7]; [10],0.12 µg/mL
same,MIC range,[7]; [10],0.008 to 1 µg/mL
same,% S,"[7]; 54 Streptococcus spp. clinical isolates, MXF by FDA breakpoints",100%
same,MIC50,"[7]; Streptococcus, read-out: MIC50",0.03 µg/mL
same,MIC90,"[7]; Streptococcus, read-out: MIC90",0.12 µg/mL
same,Mode,"[7]; modal MIC, 54 Streptococcus spp. clinical isolates",0.06 µg/mL
same,Mode,[8],>64 µg/mL
same,MIC50,"[8]; Enterococcus faecalis, read-out: MIC50",> 64 µg/mL
same,MIC90,"[8]; Enterococcus faecalis, read-out: MIC90",> 64 µg/mL
same,MIC50,[8]; listed as CTR,>64 µg/mL
same,MIC90,[8]; listed as CTR,>64 µg/mL
